Results taken from ChEMBL document CHEMBL5149962, “Targeting KRAS mutant cancers by preventing signaling transduction in the MAPK pathway” (Eur J Med Chem, 2021).
Where a SMILES comes first, the peptide text is derived from it. Bridges are numbered along the chain shown (N, C = ends). [ ]: non-standard residue; d: D form. S5 = C=CCCC[C@](C)(N)C(=O)O

Experiments:
[1] = Binding affinity to human FPTase assessed as inhibition constant
[2] = target: T1, GTPase KRas (Homo sapiens, UniProt P01116, G12V); experiment: Inhibition of KRAS G12V mutant (unknown origin) expressed in mouse NIH3T3 cells assessed as inhibition of post-translational modification processing; type: cell-based
[3] = Inhibition of HRAS […] mutant (unknown origin) expressed in mouse NIH3T3 cells assessed as inhibition of post-translational modification processing; type: cell-based, Homo sapiens
[4] = Inhibition of human N-terminal His-tagged recombinant wild-type KRAS (1 to 156 residues) expressed in Escherichia coli BL21 (DE3)/SAH-SOS1A by fluorescence based polarization assay
[5] = target: GTPase HRas (Homo sapiens, UniProt P01112); experiment: Inhibition of human p21 h-RAS assessed as reduction in C-Cdc25 stimulated nucleotide exchange by luminescence spectrometer based analysis
[6] = target: T1, GTPase KRas; experiment: Binding affinity to GDP-bound KRAS G12V RAS mutant (unknown origin)
[7] = target: GTPase KRas (Homo sapiens, UniProt P01116, G12C); experiment: Inhibition of KRAS G12C mutant (unknown origin)
[8] = Inhibition of GDP-tagged human RAS (1 to 166 residue) incubated for 20 mins by using Centricon-10 micro concentrators analysis
[9] = test system: SU.86.86; experiment: Antiproliferative activity against human SU-86-86 cells harboring KRAS 12 mutation assessed as inhibition of cell growth incubated for 4 to 7 days; type: functional, cell-based
[10] = test system: HT1197; experiment: Antiproliferative activity against human HT1197 cells harboring HRAS 61 mutation assessed as inhibition of cell growth incubated for 4 to 7 days; type: functional, cell-based
[11] = Inhibition of human FPTase using K-RasB peptide as a substrate assessed as inhibition of substrate farnesylation
[12] = test system: Capan-2; experiment: Antiproliferative activity against human Capan-2 cells harboring KRAS 12 mutation assessed as inhibition of cell growth incubated for 4 to 7 days; type: functional, cell-based
[13] = test system: NCI-H441; experiment: Antiproliferative activity against human NCI-H441 cells harboring KRAS 12 mutation assessed as inhibition of cell growth incubated for 4 to 7 days; type: functional, cell-based
[14] = Competitive inhibition of human FPTase using K-RasB peptide as a substrate assessed as inhibition constant by Scintillation proximity assay
[15] = AUC in cynomolgus monkey; type: ADME, Macaca fascicularis; conditions: in vivo
[16] = Cmax in cynomolgus monkey; type: ADME, Macaca fascicularis; conditions: in vivo
[17] = target: GTPase KRas (Homo sapiens, UniProt P01116); experiment: Binding affinity to KRAS (unknown origin) assessed as dissociation constant
[18] = Lipophilicity, logP of the compound; type: physicochemical; conditions: octanol/water
[19] = test system: RPMI-8226; experiment: Induction of apoptosis in human RPMI-8226 cells harboring KRAS mutant assessed as reduction in cell viability measured after 48 hrs by Annexin V-FITC staining based flow cytometry analysis; type: functional; conditions: RPMI-8226, 48 h
[20] = Induction of apoptosis in human U266B cells harboring wild type RAS mutant assessed as reduction in cell viability measured after 48 hrs by Annexin V-FITC staining based flow cytometry analysis; type: functional
[21] = test system: MCF-10A; experiment: Antiproliferative activity against human MCF-10A cells harboring HRAS mutant incubated for 48 hrs by MTT assay; type: functional, cell-based
[22] = Antiproliferative activity against human Hs578Bst cells harboring HRAS mutant incubated for 48 hrs by MTT assay; type: functional, cell-based
[23] = test system: MDA-MB-231; experiment: Antiproliferative activity against human MDA-MB-231 cells harboring HRAS mutant incubated for 48 hrs by MTT assay; type: functional, cell-based; conditions: MDA-MB-231, 48 h
[24] = test system: NCI-H929; experiment: Induction of apoptosis in human NCI-H929 cells harboring NRAS mutant assessed as reduction in cell viability measured after 48 hrs by Annexin V-FITC staining based flow cytometry analysis; type: functional

T1 sequence (P01116 whole entry G12V): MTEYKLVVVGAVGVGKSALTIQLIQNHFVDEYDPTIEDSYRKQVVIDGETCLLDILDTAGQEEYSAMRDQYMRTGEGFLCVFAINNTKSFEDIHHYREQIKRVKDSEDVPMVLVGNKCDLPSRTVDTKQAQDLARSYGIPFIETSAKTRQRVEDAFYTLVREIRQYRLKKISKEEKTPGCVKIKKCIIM
Chain of GTPase KRas (Homo sapiens, UniProt P01116) (P01116 whole entry): as the sequence (P01116 whole entry G12V) above, with V12G counted along it
Chain of GTPase HRas (P01112 whole entry): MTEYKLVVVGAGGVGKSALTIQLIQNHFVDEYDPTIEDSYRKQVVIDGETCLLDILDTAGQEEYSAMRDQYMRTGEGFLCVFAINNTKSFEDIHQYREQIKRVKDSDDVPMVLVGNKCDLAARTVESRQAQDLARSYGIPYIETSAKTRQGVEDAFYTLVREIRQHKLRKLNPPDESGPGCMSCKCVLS
Chain of GTPase KRas (Homo sapiens, UniProt P01116, G12C) (P01116 whole entry G12C): as the sequence (P01116 whole entry G12V) above, with V12C counted along it

For `CC(C)=CCC/C(C)=C/CC/C(C)=C/C(O)P(=O)(O)O` (configuration not stated), which Ki [1] is on record?
Its Ki is 0.0052 µM.

Which results are given for `CSCC[C@H](CC(=O)[C@H](/C=C\[C@@H](/C=C/[C@@H](N)CS)C(C)C)Cc1ccccc1)C(=O)O`?
IC50 [2]: 25 µM; IC50 [3]: 0.5 µM

For `CC[C@H](C)[C@H](NC(=O)CNC(=O)[C@H](Cc1ccccc1)NC(=O)[C@@H](N)Cc1ccccc1)C(=O)N[C@@H](Cc1ccc(O)cc1)C(=O)N[C@@H](CC(C)C)C(=O)N[C@H](C(=O)N[C@@H](CC(N)=O)C(=O)N[C@@]1(C)CCC/C=C\CCC[C@@](C)(C(=O)N[C@@H](CCC(=O)O)C(=O)NCC(=O)N[C@@H](CC(N)=O)C(=O)O)NC(=O)[C@H]([C@@H](C)O)NC(=O)[C@H](CCCCN)NC(=O)[C@H](CC(C)C)NC1=O)[C@@H](C)O`, which EC50 [4] is on record?
Its EC50 is 0.1 µM.

With `CC[C@H](C)[C@H](NC(=O)[C@]1(C)CCC/C=C\CCC[C@](C)(NC(=O)CNC(=O)[C@H](Cc2ccccc2)NC(=O)[C@@H](N)Cc2ccccc2)C(=O)N[C@@H](Cc2ccc(O)cc2)C(=O)N[C@@H](CC(C)C)C(=O)N[C@@H]([C@@H](C)O)C(=O)N1)C(=O)N[C@@H](CC(C)C)C(=O)N[C@@H](CCCCN)C(=O)N[C@H](C(=O)N[C@@H](CCC(=O)O)C(=O)N[C@@H](CCC(=O)O)C(=O)NCC(=O)N[C@@H](CC(N)=O)C(=O)O)[C@@H](C)O` as the compound, how does the EC50 [4] read?
The EC50 was 0.1 µM.

What does the source list for `O=S(=O)(NCCOc1ccc2ccccc2c1)c1ccc(NO)cc1`?
IC50 [5]: 56 µM; IC50 [6]: 0.5 µM

For `C=CC(=O)N1CCN(c2nc(NCCC(=O)N(C)C)nc3c(F)c(-c4cc(O)cc5ccccc45)c(Cl)cc23)CC1`, which IC50 [7] is on record?
The IC50 was 0.726 µM.

For `O=S(=O)(c1ccc(NO)cc1)N1CCC(=C2c3cc(Cl)ccc3CCc3cccnc32)CC1`, which IC50 [8] is on record?
Its IC50 is 0.9 µM.

Which IC50 [9] does the source give for `Cn1cncc1[C@@](N)(c1ccc(Cl)cc1)c1ccc2c(c1)c(-c1cccc(Cl)c1)cc(=O)n2C` [TIPIFARNIB] here?
The IC50 was 0.0095 µM.

What about the IC50 [10] of the same compound?
The IC50 was 0.0017 µM.

And the IC50 [11]?
Its IC50 is 0.0079 µM.

And the IC50 [12]?
The IC50 was 0.016 µM.

What about the IC50 [13] of the same compound?
Its IC50 is 0.036 µM.

What about the Ki [14] of the same compound?
Its Ki is 0.0005 µM.

Which EC50 [4] does the source give for `CC[C@H](C)[C@@H]1NC(=O)CNC(=O)[C@@](C)(NC(=O)[C@@H](N)Cc2ccccc2)CCC/C=C\CCC[C@@](C)(C(=O)N[C@H](C(=O)N[C@@H](C)C(=O)N[C@H](C(=O)N[C@@H](CC(C)C)C(=O)N[C@@H](CCCCN)C(=O)N[C@H](C(=O)N[C@@H](CCC(=O)O)C(=O)N[C@@H](CCC(=O)O)C(=O)NCC(=O)N[C@@H](CC(N)=O)C(=O)O)[C@@H](C)O)[C@@H](C)CC)[C@@H](C)O)NC(=O)[C@H](Cc2ccc(O)cc2)NC1=O` (H-F[S5]GIY[S5]TAILKTEEGN-OH; staple (Z) 2-6) here?
The EC50 was 0.1 µM.

Which AUC [15] does the source give for `NC(=O)N1CCC(CC(=O)N2CCC([C@H]3c4ncc(Br)cc4CCc4cc(Cl)cc(Br)c43)CC2)CC1` [LONAFARNIB] here?
Its AUC is 14700 ng·h/mL.

And the Cmax [16]?
Its Cmax is 1900 nM.

Which Kd [17] does the source give for `Cc1[nH]c2cc(Cl)cc(Cl)c2c1CCN` here?
Its Kd is 1100 µM.

Which logP [18] does the source give for `C=C1CC[C@@H]2[C@]3(C)COC(c4cccc(Br)c4)O[C@@H]3CC[C@@]2(C)[C@@H]1C/C=C1/C(=O)OC[C@H]1O` (some centres not stated) here?
The logP was 2.6.

Which IC50 [19] does the source give for `COC(=O)[C@H](CCSC)NC(=O)c1ccc(NC[C@H](N)CS)cc1-c1ccccc1` here?
Its IC50 is 41.6 µM.

And the IC50 [20]?
Its IC50 is 25.4 µM.

And the IC50 [21]?
Its IC50 is 6.83 µM.

What about the IC50 [22] of the same compound?
The IC50 was 14.9 µM.

What about the IC50 [23] of the same compound?
The IC50 was 29.3 µM.

What about the IC50 [24] of the same compound?
Its IC50 is 12.7 µM.

For `CC[C@H](C)[C@H](NC(=O)CNC(=O)[C@H](Cc1ccccc1)NC(=O)[C@@H](N)Cc1ccccc1)C(=O)N[C@@]1(C)CCC/C=C\CCC[C@@](C)(C(=O)N[C@@H](CC(C)C)C(=O)N[C@@H](CCCCN)C(=O)N[C@H](C(=O)N[C@@H](CCC(=O)O)C(=O)N[C@@H](CCC(=O)O)C(=O)NCC(=O)N[C@@H](CC(N)=O)C(=O)O)[C@@H](C)O)NC(=O)[C@H](CC(N)=O)NC(=O)[C@H]([C@@H](C)O)NC(=O)[C@H](CC(C)C)NC1=O`, which EC50 [4] is on record?
The EC50 was 0.1 µM.
